Drawing on ChEMBL document CHEMBL3797192, “Potential pancreatic lipase inhibitory activity of phenolic constituents from the root bark of Morus alba L” (Bioorg Med Chem Lett, 2016), this text covers IC50 for nine compounds.

The experiment deals with T1, Pancreatic triacylglycerol lipase (Sus scrofa, UniProt P00591).
T1 sequence (P00591 whole entry): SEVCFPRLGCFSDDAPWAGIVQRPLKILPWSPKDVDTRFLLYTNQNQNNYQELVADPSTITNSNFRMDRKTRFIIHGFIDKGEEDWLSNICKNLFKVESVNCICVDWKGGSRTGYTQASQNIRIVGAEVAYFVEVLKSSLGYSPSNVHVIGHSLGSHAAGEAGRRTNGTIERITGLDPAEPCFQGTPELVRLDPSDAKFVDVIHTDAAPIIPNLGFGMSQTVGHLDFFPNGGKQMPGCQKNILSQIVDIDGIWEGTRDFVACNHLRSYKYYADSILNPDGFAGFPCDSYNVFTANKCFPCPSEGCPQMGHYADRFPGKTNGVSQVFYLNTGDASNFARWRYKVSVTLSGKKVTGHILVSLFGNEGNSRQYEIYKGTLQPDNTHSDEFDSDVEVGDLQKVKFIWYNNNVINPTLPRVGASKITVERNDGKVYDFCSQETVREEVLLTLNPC
The experiment is described as follows: Inhibition of porcine pancreatic lipase using p-nitrophenyl butyrate as substrate assessed as formation of p-nitrophenol preincubated for 10 mins followed by substrate addition by spectrophotometric method.
In general, IC50 refers to the concentration needed to halve the response being measured. Regarding `CC(C)=CCCC1(C)C=Cc2c(O)cc(-c3cc4ccc(O)cc4o3)cc2O1` (centres undefined), the IC50 came out at 0.76 µM. As for `COc1cc(O)cc(-c2cc3ccc(O)c(C/C=C(/C)CCC=C(C)C)c3o2)c1CC=C(C)C`, the figure is 0.92 µM. Under `COc1cc(O)cc(/C=C/c2ccc(O)cc2)c1C/C=C(/C)CCC=C(C)C` stands 0.85 µM; under `CC(C)=CCC/C(C)=C\CC/C(C)=C\Cc1c(O)cc(O)c(CC=C(C)C)c1-c1cc2ccc(O)cc2o1`, 0.39 µM.

Take `CC(C)=CCCC(C)=CCc1c(O)cc2c(c1O)C(=O)C[C@@H](c1ccc(O)c(CC=C(C)C)c1O)O2`: the IC50 was 0.71 µM. Under `CC(C)=CCC/C(C)=C/Cc1c(O)ccc2cc(-c3cc(O)cc(O)c3CC=C(C)C)oc12` [MULBERROFURAN D] stands 0.09 µM; under `COc1cc(O)cc(-c2cc3ccc(O)cc3o2)c1C/C=C(/C)CC/C=C(/C)CCC=C(C)C`, 0.57 µM; under `CC(C)=CCC/C(C)=C\Cc1c(O)ccc2cc(-c3cc(O)c4ccoc4c3)oc12`, 0.48 µM.

Regarding `CC(C)=CCC/C(C)=C\CC/C(C)=C\Cc1c(O)cc(O)cc1-c1cc2ccc(O)cc2o1` [MULBERROFURAN W], the IC50 was determined as 0.7 µM.
